This note sets out measurements from patent US8912181B2 (Taiho Pharmaceutical Co., Ltd., priority 2011, dated 2014).

Each structure is given as a SMILES string. pIC50: −log10 of the molar value.

In experiment [1] the target is human HSP90 alpha protein (N-terminal, amino acids 2 to 236) (Homo sapiens (Human), UniProt P07900). The experiment can be described thus: Determination of HSP90-binding activity (AlphaScreen competitive assay with biotinylated geldanamycin). As to conditions: inhibition of binding of biotinylated geldanamycin to purified HSP90 N-terminal protein, read-out: HSP-binding activity IC50. The gist of the method:
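His-tagged N-terminal construct (aa 2–236) expressed in E. coli and purified was preincubated with compound 2 h at room temperature, then biotinylated geldanamycin (40 nM/well) added for 1 h. AlphaScreen nickel-chelate acceptor/streptavidin donor beads, 1 h dark; percent inhibition calculated against no-compound signal.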

The next experiment relates to SK-BR-3 cells. The experiment can be described thus: Determination of cell growth inhibition (crystal violet staining method). As to conditions: Homo sapiens; breast cancer cells SK-BR-3, 72 hours culture with test substance. Format: cell-based. In outline: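 SK-BR-3 cells seeded 5,000/well, cultured 24 h at 37 °C, then exposed to compound for 72 h. Cells fixed with glutaraldehyde, stained with 0.05% crystal violet, eluted and read at 540 nm; percent growth inhibition calculated versus untreated wells.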

Consider `NC(=O)c1ccc(-c2nccc3c(-c4cncc(NC(=O)CO)c4)cccc23)cc1NC1CCC(O)CC1` (stereo not drawn) [Example 28, 4-(5-(5-(2-Hydroxyacetamide)pyridin-3-yl)isoquinolin-1-yl)-2-(4-hydroxycyclohexylamino)benzamide], for which the pIC50 in experiment [1] was 6.64; with SK-BR-3 cells it was 6.30.

For `CC(C)(C)Nc1cc(-c2nccc3c(-n4cnc(-c5cccnc5)c4)cccc23)ccc1C(N)=O` [Example 127], the values for the pIC50 (in experiment [1]; in the experiment with SK-BR-3 cells) were 6.68 and 7.30, respectively.

Regarding `CC(C)(C)Nc1cc(-c2nccc3c(-c4cnc5ccccc5c4)cccc23)ccc1C(N)=O` [Example 126, 2-(Tert-butylamino)-4-(5-(quinolin-3-yl)isoquinolin-1-yl)benzamide], the pIC50 in experiment [1] is 5.82; with SK-BR-3 cells it was 6.46.

Consider `Cn1cc(-c2cn(-c3cccc4c(-c5ccc(C(N)=O)c(NCCc6ccccn6)c5)nccc34)cn2)cn1` [Example 60, 4-(5-(4-(1-Methyl-1H-pyrazol-4-yl)-1H-imidazol-1-yl)isoquinolin-1-yl)-2-(2-(pyridin-2-yl)ethylamino)benzamide], for which the values for the pIC50 (in experiment [1]; in the experiment on SK-BR-3 cells) were 6.77 and 6.82, respectively.

With `NC(=O)c1ccc(-c2cccc3c(-c4cnc5ccccc5c4)nccc23)cc1NC1CCC(O)CC1` (stereo not drawn) [Comp. Ex. 1, 2-(4-Hydroxycyclohexylamino)-4-(1-(quinolin-3-yl)isoquinolin-5-yl)benzamide, reference compound], the pIC50 in experiment [1] is less than 4.00; in the experiment with SK-BR-3 cells, 5.07.

On to `Cc1cc(C(N)=O)ccc1-c1cc(C(F)(F)F)nc2c(-n3cnc(-c4cnn(C)c4)c3)cccc12` [Example 84, 3-Methyl-4-(8-(4-(1-methyl-1H-pyrazol-4-yl)-1H-imidazol-1-yl)-2-(trifluoromethyl)quinolin-4-yl)benzamide], for which the pIC50 was 6.66 in experiment [1] and 6.96 in the experiment with SK-BR-3 cells.

For the molecule `CCNc1cc(-c2nc(C)cc3c(-n4cnc(-c5cnn(C)c5)c4)cccc23)ccc1C(N)=O` [Example 66, 2-(Ethylamino)-4-(3-methyl-5-(4-(1-methyl-1H-pyrazol-4-yl)-1H-imidazol-1-yl)isoquinolin-1-yl)benzamide], the values for the pIC50 (in experiment [1]; in the experiment with SK-BR-3 cells) were 6.82 and 7.70, respectively.

In the case of `COCCNc1cc(-c2nc(C)cc3c(-n4cnc(-c5cnn(C)c5)c4)cccc23)ccc1C(N)=O` [Example 98, 2-(2-Methoxyethylamino)-4-(3-methyl-5-(4-(1-methyl-1H-pyrazol-4-yl)-1H-imidazol-1-yl)isoquinolin-1-yl)benzamide], the figures for the pIC50 (in experiment [1]; in the experiment on SK-BR-3 cells) were 7.10 and 7.70, respectively.

For `Cc1ccc2cc(-c3cccc4c(-c5ccc(C(N)=O)c(NC6CCC(O)CC6)c5)nccc34)cnc2c1` (stereo not drawn) [Example 11, 2-(4-Hydroxycyclohexylamino)-4-(5-(7-methylquinolin-3-yl)isoquinolin-1-yl)benzamide], the results for the pIC50 (in experiment [1]; in the experiment on SK-BR-3 cells) were 6.32 and 6.96, respectively.

For `Cn1cc(-c2cn(-c3cccc4c(-c5ccc(C(N)=O)c(NC(C)(C)C)c5)cc(C(F)(F)F)nc34)cn2)cn1` [Example 86, 2-(Tert-butylamino)-4-(8-(4-(1-methyl-1H-pyrazol-4-yl)-1H-imidazol-1-yl)-2-(trifluoromethyl)quinolin-4-yl)benzamide], the pIC50 in experiment [1] is 7.00; in the experiment on SK-BR-3 cells, 8.00.

As to `Cc1ccc(-c2cn(-c3cccc4c(-c5ccc(C(N)=O)c(NC(C)(C)C)c5)cc(C(F)(F)F)nc34)cn2)cn1` [Example 99, 2-(Tert-butylamino)-4-(8-(4-(6-methylpyridin-3-yl)-1H-imidazol-1-yl)-2-(trifluoromethyl)quinolin-4-yl)benzamide], the results for the pIC50 (in experiment [1]; with SK-BR-3 cells) were 6.57 and 7.40, respectively.

Regarding `Cn1cc(-c2cn(-c3cccc4c(-c5ccc(C(N)=O)c(NC6CCC(O)CC6)c5)nccc34)cn2)cn1` (stereo not drawn) [Example 48, 2-(4-Hydroxycyclohexylamino)-4-(5-(4-(1-methyl-1H-pyrazol-4-yl)-1H-imidazol-1-yl)isoquinolin-1-yl)benzamide], the pIC50 in experiment [1] is 7.15; with SK-BR-3 cells it was 7.70.

`Cn1cc(-c2cn(-c3cccc4c(-c5ccc(C(N)=O)c(Cl)c5)cc(C(F)(F)F)nc34)cn2)cn1` [Example 81, 2-Chloro-4-(8-(4-(1-methyl-1H-pyrazol-4-yl)-1H-imidazol-1-yl)-2-(trifluoromethyl)quinolin-4-yl)benzamide]: the pIC50 in experiment [1] is 6.06; in the experiment on SK-BR-3 cells it was 6.12.

Regarding `CNC(=O)c1ccc(-c2cccc3c(-c4ccc(C(N)=O)c(NC5CCC(O)CC5)c4)nccc23)cn1` (stereo not drawn) [Example 56, 5-(1-(4-Carbamoyl-3-(4-hydroxycyclohexylamino)phenyl)isoquinolin-5-yl)-N-methylpicolinamide], the results for the pIC50 (in experiment [1]; with SK-BR-3 cells) were 6.43 and 6.33, respectively.

For the molecule `CN(CCO)CNC(=O)c1ccc(-c2nccc3c(-c4cnc5ccccc5c4)cccc23)cc1NC1CCC(O)CC1` (stereo not drawn) [Example 37, 2-(4-Hydroxycyclohexylamino)-N-(((2-hydroxyethyl)(methyl)amino)methyl)-4-(5-(quinolin-3-yl)isoquinolin-1-yl)benzamide], the pIC50 in experiment [1] is 6.43; in the experiment with SK-BR-3 cells, 7.22.

`CC(C)OCCNc1cc(-c2cc(C(F)(F)F)nc3c(-n4cnc(-c5ccccc5)c4)cccc23)ccc1C(N)=O` [Example 109, 2-(Isopropoxyethylamino)-4-(8-(4-phenyl-1H-imidazol-1-yl)-2-(trifluoromethyl)quinolin-4-yl)benzamide]: the pIC50 is 5.36 in experiment [1] and 6.68 with SK-BR-3 cells.

`CCc1cc(-c2ccc(C(N)=O)c(N)c2)c2cccc(-n3cnc(-c4cccnc4)c3)c2n1` [Example 122, 2-Amino-4-(2-ethyl-8-(4-(pyridin-3-yl)-1H-imidazol-1-yl)quinolin-4-yl)benzamide]: the pIC50 is 7.05 in experiment [1] and 8.00 with SK-BR-3 cells.

As for `Cn1cc(-c2cn(-c3cccc4c(-c5ccc(C(N)=O)nc5)cc(C(F)(F)F)nc34)cn2)cn1` [Example 83, 5-(8-(4-(1-Methyl-1H-pyrazol-4-yl)-1H-imidazol-1-yl)-2-(trifluoromethyl)quinolin-4-yl)picolinamide], the pIC50 was 6.68 in experiment [1] and 7.00 in the experiment on SK-BR-3 cells.

As to `CCNc1cc(-c2nccc3c(-n4cnc(-c5cnn(C)c5)c4)ccnc23)ccc1C(N)=O` [Example 72, 2-Ethylamino-4-(4-(4-(1-methyl-1H-pyrazol-4-yl)-1H-imidazol-1-yl)1,7-naphthyridin-8-yl)benzamide], the values for the pIC50 (in experiment [1]; in the experiment with SK-BR-3 cells) were 6.13 and 5.76, respectively.

For the molecule `NC(=O)c1ccc(-c2nccc3c(-c4cnc5[nH]ccc5c4)cccc23)cc1NC1CCC(O)CC1` (stereo not drawn) [Example 14, 4-(5-(1H-Pyrrolo[2,3-b]pyridin-5-yl)isoquinolin-1-yl)-2-(4-hydroxycyclohexylamino)benzamide], the pIC50 in experiment [1] is 5.82; with SK-BR-3 cells it was 6.47.

As for `CC(C)n1cc(-c2cn(-c3cccc4c(-c5ccc(C(N)=O)c(NC6CCC(O)CC6)c5)nccc34)cn2)cn1` (stereo not drawn) [Example 53, 2-(4-Hydroxycyclohexylamino)-4-(5-(4-(1-isopropyl-1H-pyrazol-4-yl)-1H-imidazol-1-yl)isoquinolin-1-yl)benzamide], the pIC50 was 6.92 in experiment [1] and 7.40 in the experiment on SK-BR-3 cells.

In the case of `CCNc1cc(-c2nc(C(F)(F)F)nc3c(-n4cnc(-c5cnn(C)c5)c4)cccc23)ccc1C(N)=O` [Example 80, 2-(Ethylamino)-4-(8-(4-(1-methyl-1H-pyrazol-4-yl)-1H-imidazol-1-yl)-2-(trifluoromethyl)quinazolin-4-yl)benzamide], the pIC50 was 6.85 in experiment [1] and 7.70 in the experiment on SK-BR-3 cells.

Take `Cc1cc(-c2ccc(C(N)=O)c(NC(C)(C)C)c2)c2cccc(-n3cnc(-c4cnn(C)c4)c3)c2n1` [Example 97, 2-(Tert-butylamino)-4-(2-methyl-8-(4-(1-methyl-1H-pyrazol-4-yl)-1H-imidazol-1-yl)quinolin-4-yl)benzamide]: the pIC50 in experiment [1] was 6.80; in the experiment with SK-BR-3 cells it was 7.70.

Take `Cc1ccc(-c2cn(-c3cccc4c(-c5ccc(C(N)=O)c(N)c5)cc(C(C)C)nc34)cn2)cn1` [Example 125, 2-Amino-4-(2-isopropyl-8-(4-(6-methylpyridin-3-yl)-1H-imidazol-1-yl)quinolin-4-yl)benzamide]: the pIC50 in experiment [1] is 6.80; in the experiment on SK-BR-3 cells it was 8.00.
